From patent US20240092756A1, “METHODS AND COMPOSITION FOR KRAS MODIFICATIONS” (2692372 ONTARIO, INC., priority 2020, published 2024)

Legend:
[1] = system: phospho-ERK1/2 in MIA PaCa-2 cells (express KRAS G12C); assay: ERK1/2 phosphorylation in MIA PaCa-2 cells; type: cell-based, human; design: key: X: KRAS G12C bound and modulated in cells
Description: MIA PaCa-2 cells were cultured in Dulbecco's Modified Eagle's Medium (Wisent) supplemented with 10% FBS, 2.5% horse serum, and 1% penicillin/streptomycin. Cells were seeded in 6-well plates at 500,000 cells/well and incubated at 37° C., 5% CO2 for 16 hours. Cells were treated with the indicated concentrations of compound or DMSO alone and incubated at 37° C., 5% CO2 for 6 or 24 hours. Conditioned media was discarded, and adherent cells were washed with PBS before they were scraped. Cell suspensions were centrifugated at 2,000 RPM for 5 minutes at 4° C. and supernatants were discarded. Cell pellets were resuspended with 1×RIPA buffer (Millipore) and incubated on ice for 15 minutes. Protein lysates were extracted by centrifugating at 20,000 RPM for 20 minutes at 4° C. Proteins were separated and total KRas protein levels were quantified by Simple Western Immunoassay (ProteinSimple) using the 2-40 kDa Separation Module for Jess according to the manufacturer's protocol, using a protein concentration of 0.5 μg/μl and antibodies targeting KRas (clone #4F3, Sigma) and GAPDH (clone #14C10, Cell Signaling) diluted to 1:10 and 1:1600, respectively, where the latter was used as a loading control. A 3:1 ratio of rabbit to mouse HRP-conjugated secondary antibodies was used for detection. KRas protein levels were quantified relative to GAPDH loading levels and subsequently normalized to the DMSO control. Phosphorylated ERK1/2 levels were quantified by Simple Western Immunoassay (ProteinSimple) using the Protein Normalization Assay Module for Jess according to the manufacturer's protocol using a protein concentration of 0.5 μg/μl and an antibody targeting phosphor-ERK1/2 (clone #D13.14.4E, Cell Signalling) diluted to 1:10. Phosphorylated ERK1/2 levels were normalized to the Jess Protein Normalization Reagent loading control and subsequently to the DMSO control.
MIA PaCa-2 cells were cultured in Dulbecco's Modified Eagle's Medium (Wisent) supplemented with 10% FBS, 2.5% horse serum, and 1% penicillin/streptomycin. Cells were seeded in 96-well plates at a density of 25,000 cells/well and incubated at 37° C., 5% CO2 for 24 hours. The next day, cells were starved in cell culture media containing 1% FBS only at 37° C., 5% CO2 for 16 hours. Following starvation, serially-diluted compounds or DMSO alone were added to cells and incubated at 37° C., 5% CO2 for 1 or 3 hours. Prior to cell lysis, 25 ng/ml human epidermal growth factor (hEGF) (Sigma) was added to the cells and incubated at 37° C., 5% CO2 for 10 minutes. Conditioned media was discarded, and adherent cells lysed and basal ERK1/2 phosphorylation levels were measured using the Phospho-ERK (Thr202/Tyr204) Cellular HTRF kit (Perkin Elmer) according to the manufacturer's protocol. The fluorescent signal of the acceptor antibody at a wavelength of 665 nm was normalized to that of the donor antibody at 620 nm. HTRF ratios were plotted and relative IC50 values were obtained using Prism (GraphPad).

[2] = target: KRAS G12C Lite (SEQ ID NO:3) (Homo sapiens, UniProt P01116, C118S/C51S/C80S/G12C/S136P/S39C); assay: Intact mass analysis (LC-MS) of covalent modification, KRAS G12C Lite; type: binding; design: key to KRAS Lite Modification: a: KRAS Lite modified; conditions: for KRAS Lite Modification: intact mass spectrometry, covalent modification of KRAS G12C Lite
Description: (§1) The covalent modification of the proteins with the compounds were evaluated using intact mass analysis by liquid chromatography-mass spectrometry instrument (LC-MS/MS).
(§2) The reaction solution (20 μL) was prepared in 96-well plate and contained the protein (2 μM), the compound (100 μM), HEPES buffer (20 mM, pH 8), 2% DMSO, 2% glycerol, and 150 mM NaCl. The reaction was allowed to proceed for 24 h at 25° C. The reaction solution (1 μL) was injected into the LC/MS/MS without any further sample preparation.
(§3) The LC-MS/MS instrument comprises of a Waters G2-XS quadrupole-time of flight (QTof) mass spectrometer and a Waters Acuity I-class Ultra-High Performance Liquid Chromatography (UPLC) system. The I-class UPLC system includes a binary solvent manager (BSM), and an Acquity sample manager (SM). The mobile phase consisted of: A) 0.1% (v/v) formic acid in MilliQ water; B) 0.1% (v/v) formic acid acetonitrile. Gradients were run over 5 min and proceeded as follows: A:B, 85:15, 0.0-0.7 min, 85:15→15:85, 0.7-1.5 min, 10:90, 1.5-4 min, 10:90→85:15, 4-4.5 min, 85:15, 4.5-5 min. The analytical column was a Waters BEH C4 column 1.7 μm (50×1 mm) column with pore sizes of 300 Å. The TOF MS data was collected in positive ion mode (m/z of 400-2000 Da) using MassLynx software (Waters).
(§4) The spectral deconvolution was performed using UNIFI software (Waters). The added mass of the protein upon covalent modification to cysteine residues were specified. Multiple modification of up to 8 cysteine was allowed. All the adducts with signal intensities of <2% of the base peak were ignored. The % modification was calculated as the adduct signal intensity over the total intensities of the protein peaks and the adducts.

[3] = target: T1, KRAS G12C (SEQ ID NO:1 or SEQ ID NO:2) (Homo sapiens, UniProt P01116, G12C); assay: Intact mass analysis (LC-MS) of covalent modification, KRAS G12C; type: binding; design: key to KRAS G12C Modification: b: KRAS G12C modified; conditions: for KRAS G12C Modification: intact mass spectrometry, covalent modification of KRAS G12C FL
T1 construct: purchased
Description: as §1, §2, §3, §4

KRAS G12C = KRAS G12C (Homo sapiens, UniProt P01116, G12C); assay: SOS1-catalyzed KRAS coupled nucleotide exchange assay (Alpha technology); type: biochemical; design: His; key: A: KRAS G12C bound and modulated; conditions: inhibition of SOS1 mediated KRAS nucleotide exchange
Description: Method I: The inhibition of the SOS1-catalyzed nucleotide exchange activity of KRAS (e.g., KRAS G12C/C118A) was measured using Alpha (Amplified Luminescent Proximity Homogeneous Assay) technology. 20 nM GDP-bound human KRAS (G12C/C118A) protein was incubated with two-fold serially-diluted test compound or DMSO for 5 minutes at ambient temperature in reaction buffer (25 mM HEPES, pH 7.4; 10 mM MgCl2; 0.01% Triton X-100). For all subsequent steps, DTT was added to the reaction buffer at a final concentration of 1 mM. Next, GTP and SOS-1 were added in DTT-reaction buffer at final concentrations of 1.25 mM or 500 nM, respectively, and incubated at RT for 30 minutes. Finally, c-RAF RBD (50 nM final), Alpha glutathione donor beads (PerkinElmer; 20 μg/mL final), and AlphaLISAnickel chelate acceptor beads (PerkinElmer; 20 μg/mL final), all diluted in DTT-reaction buffer, were added. The reaction mixture was incubated at RT for 5 min, and then the plates were read on an EnVision® Multilabel Reader using the AlphaScreen protocol. Luminescence signal was measured at 570 nm following a 180 ms excitation at 680 nm. Signal intensity corresponded with the association of c-RAF RBD with GTP-bound KRAS G12C/C118A and was normalized to DMSO control.
Method II: Inhibition of the SOS1-catalyzed nucleotide exchange activity of KRAS^G12C was measured using Alpha technology (PerkinElmer). 50 nM GDP-bound human KRAS^G12C protein was incubated with serially-diluted compound or DMSO for 2 hrs at RT in RBD-RAS binding buffer (BPSBioscience). 1 mM GTP and 500 nM SOS-1 were added to the reaction mixture and incubated at RT for 30 min. GST-tagged RBD-cRAF was then added to the reaction mixture at a final concentration of 2.5 nM and incubated at RT for 30 min. Finally, Alpha Glutathione acceptor beads and Nickel chelate donor beads (PerkinElmer) were diluted to 1:500 and 1:250, respectively, and added to the reaction mixture. The final reaction was incubated at RT for 30 min. Plates were read on a TECAN SPARK® Multiplate Reader. The luminescence signal was measured at 615 nm following excitation at 680 nm. Signal intensity was normalized to DMSO control.

[4] = modification by one molecule of compound

Row | Structure (SMILES) | KRAS Lite Modification [2] | KRAS G12C Modification [3] | KRAS-SOS1 Nucleotide Exchange (KRAS G12C) | covalent adduct mass, His-tagged KRAS G12C Lite [2, 4] | covalent adduct mass, His-tagged KRAS G12C [3, 4] | pERK - MIA PaCa-2 - (6 hours, 5 uM) [1]
1 | Cc1ccnc(C(C)C)c1-n1c(=O)nc(N2CCN(S(=O)(=O)c3c(F)c(F)c(F)c(F)c3OC(F)F)C[C@@H]2C)c2cc(F)c(-c3c(O)cccc3F)nc21 (single isomer, unassigned) [Compound 17A] | a | b | A |  |  | X
2 | Cc1ccnc(C(C)C)c1-n1c(=O)nc(N2CCN(S(=O)(=O)c3c(F)c(F)c(F)c(F)c3OC(F)F)C[C@@H]2C)c2cc(F)c(-c3c(O)cccc3F)nc21 (single isomer, unassigned) [Compound 18A] | a | b | A |  |  | X
3 | Cc1ccnc(C(C)C)c1-n1c(=O)nc(NS(=O)(=O)c2c(F)c(F)c(F)c(F)c2F)c2cc(F)c(-c3c(O)cccc3F)nc21 [Compound 3A, 2,3,4,5,6-pentafluoro-N-(6-fluoro-7-(2-fluoro-6-hydroxyphenyl)-1-(2-isopropyl-4-methylpyridin-3-yl)-2-oxo-1,2-dihydropyrido[2,3-d]pyrimidin-4-yl)benzenesulfonamide] | a | b | A |  |  | X
4 | Cc1ccnc(C(C)C)c1-n1c(=O)nc(N2CCN(S(=O)(=O)c3c(F)c(F)c(F)c(F)c3OC(F)F)C[C@@H]2C)c2cc(F)c(-c3c(O)cccc3F)nc21 [Compound 16A, 4-((S)-4-((2-(difluoromethoxy)-3,4,5,6-tetrafluorophenyl)sulfonyl)-2-methylpiperazin-1-yl)-6-fluoro-7-(2-fluoro-6-hydroxyphenyl)-1-(2-isopropyl-4-methylpyridin-3-yl) pyrido[2,3-d]pyrimidin-2(1H)-one] | a | b | A |  |  | 

Further lines, with some results ahead:

Row | KRAS Lite Modification [2] | KRAS G12C Modification [3] | KRAS-SOS1 Nucleotide Exchange (KRAS G12C) | covalent adduct mass, His-tagged KRAS G12C Lite [2, 4] | covalent adduct mass, His-tagged KRAS G12C [3, 4] | Structure (SMILES) | pERK - MIA PaCa-2 - (6 hours, 5 uM) [1]
5 | a | b | A | 22,179 Da | 22,070 Da | Cc1ccnc(C(C)C)c1-n1c(=O)nc(N2CCN(S(=O)(=O)c3c(F)c(F)c(F)c(F)c3F)C[C@@H]2C)c2cc(F)c(-c3c(O)cccc3F)nc21 [Compound 1A, 6-fluoro-7-(2-fluoro-6-hydroxyphenyl)-1-(2-isopropyl-4-methylpyridin-3-yl)-4-((S)-2-methyl-4-((perfluorophenyl)sulfonyl)piperazin-1-yl)pyrido[2,3-d]pyrimidin-2(1H)-one] | X
6 | a | b | A |  |  | Cc1ccnc(C(C)C)c1-n1c(=O)nc(N2CCN(S(=O)(=O)c3c(F)c(F)c(F)c(F)c3F)C[C@@H]2C)c2cc(F)c(Cl)nc21 [Compound 2A, 7-chloro-6-fluoro-1-(2-isopropyl-4-methylpyridin-3-yl)-4-((S)-2-methyl-4-((perfluorophenyl)sulfonyl)piperazin-1-yl)pyrido[2,3-d]pyrimidin-2(1H)-one] | 
7 |  | b | A |  |  | COc1c(F)c(F)c(F)c(F)c1S(=O)(=O)N1CCN(c2nc(=O)n(-c3c(C)ccnc3C(C)C)c3nc(-c4c(O)cccc4F)c(F)cc23)[C@@H](C)C1 [Compound 5A, 6-fluoro-7-(2-fluoro-6-hydroxyphenyl)-1-(2-isopropyl-4-methylpyridin-3-yl)-4-((S)-2-methyl-4-((2,3,4,5-tetrafluoro-6-methoxyphenyl)sulfonyl)piperazin-1-yl)pyrido[2,3-d]pyrimidin-2(1H)-one] | X
8 | a | b |  |  |  | Cc1cccc(C)c1-c1ccc2cc(CNS(=O)(=O)c3c(F)c(F)c(F)c(F)c3F)cnc2c1 [Compound 19A, N-[[7-(2,6-dimethylphenyl)-3-quinolyl]methyl]-2,3,4,5,6-pentafluoro-benzenesulfonamide] | X
9 |  | b |  |  |  | O=C(COc1ccc(Cl)cc1Cl)NC1CN(S(=O)(=O)c2c(F)c(F)c(F)c(F)c2F)C1 [Compound 50A, 2-(2,4-dichlorophenoxy)-N-(1-((perfluorophenyl)sulfonyl)azetidin-3-yl)acetamide] | 
10 |  | b |  |  |  | O=C(COc1ccc(Cl)cc1Cl)N1CCN(S(=O)(=O)c2c(F)c(F)c(F)c(F)c2C(F)(F)F)CC1 [Compound 51A, 2-(2,4-dichlorophenoxy)-1-(4-((2,3,4,5-tetrafluoro-6-(trifluoromethyl)phenyl)sulfonyl)piperazin-1-yl)ethan-1-one] | 
